Test results from patent publication US10273231B2, “Azoline compounds substituted by a condensed ring system” (BASF SE, priority 2014, dated 2019).

Tests used:
Type in all cases: in vivo
[1] = tested on: Mediterranean Fruitfly (Ceratitis capitata); test: B.6 Mediterranean fruitfly test, insect diet with eggs in microtiter plates; conditions: 120 h, egg and larval mortality after 5 days, read-out: mortality in comparison with untreated controls
Protocol: B.6 Mediterranean Fruitfly (Ceratitis capitata)
For evaluating control of Mediterranean fruitfly (Ceratitis capitata) the test unit consisted of microtiter plates containing an insect diet and 50-80 C. capitata eggs. The compounds were formulated using a solution containing 75% v/v water and 25% v/v DMSO. Different concentrations of formulated compounds were sprayed onto the insect diet at 5 μl, using a custom built micro atomizer, at two replications.
After application, microtiter plates were incubated at about 28±1° C. and about 80+5% relative humidity for 5 days. Egg and larval mortality was then visually assessed.

[2] = tested on: Boll Weevil (Anthonomus grandis); test: B.5 Boll weevil test, insect diet with eggs in microtiter plates; conditions: 120 h, egg and larval mortality after 5 days, read-out: mortality in comparison with untreated controls
Protocol: B.5 Boll Weevil (Anthonomus grandis)
For evaluating control of boll weevil (Anthonomus grandis) the test unit consisted of 96-well-microtiter plates containing an insect diet and 5-10 A. grandis eggs.
The compounds were formulated using a solution containing 75% v/v water and 25% v/v DMSO. Different concentrations of formulated compounds were sprayed onto the insect diet at 5 μl, using a custom built micro atomizer, at two replications.
After application, microtiter plates were incubated at about 25±1° C. and about 75±5% relative humidity for 5 days. Egg and larval mortality was then visually assessed.

[3] = tested on: Rice Green Leafhopper (Nephotettix virescens); test: B.8 Rice green leafhopper test on sprayed rice seedlings; conditions: adults, recorded after 72 hours, read-out: mortality in comparison with untreated controls
Protocol: B.8 Rice Green Leafhopper (Nephotettix virescens)
Rice seedlings were cleaned and washed 24 hours before spraying. The active compounds were formulated in 1:1 acetone:water (vol:vol), and 0.01% vol/vol surfactant (Kinetic HV) was added. Potted rice seedlings were sprayed with 5-6 ml test solution, air dried, covered with Mylar cages cages and inoculated with 10 adults. Treated rice plants were kept at about 28-29° C. and relative humidity of about 50-60%. Percent mortality was recorded after 72 hours.

[4] = tested on: Vetch Aphid (Megoura viciae); test: B.3 Vetch aphid test on broad bean leaf disks; conditions: foliar, 120 h, adult aphids, assessed after 5 days, read-out: mortality in comparison with untreated controls
Protocol: B.3 Vetch Aphid (Megoura viciae)
For evaluating control of vetch aphid (Megoura viciae) through contact or systemic means the test unit consisted of 24-well-microtiter plates containing broad bean leaf disks.
The compounds were formulated using a solution containing 75% v/v water and 25% v/v DMSO. Different concentrations of formulated compounds were sprayed onto the leaf disks at 2.5 μl, using a custom built micro atomizer, at two replications.
After application, the leaf disks were air-dried and 5-8 adult aphids placed on the leaf disks inside the microtiter plate wells. The aphids were then allowed to suck on the treated leaf disks and incubated at about 23±10C and about 50±5% relative humidity for 5 days. Aphid mortality and fecundity was then visually assessed.

[5] = tested on: Green Soldier Stink Bug (Nezara viridula); test: B.11 Green soldier stink bug test on soybean pods in Petri dishes; conditions: 120 h, late 3rd instar, recorded after 5 days, read-out: mortality in comparison with untreated controls
Protocol: B.11 Green Soldier Stink Bug (Nezara viridula)
(§1) The active compound was dissolved at the desired concentration in a mixture of 1:1 (vol:vol) distilled water:acetone. Surfactant (Kinetic HV) was added at a rate of 0.01% (vol/vol).The test solution was prepared at the day of use.
Soybean pods were placed in glass Petri dishes lined with moist filter paper and inoculated with ten late 3rd instar N. viridula. Using a hand atomizer, approximately 2 ml solution is sprayed into each Petri dish. Assay arenas were kept at about 25° C. Percent mortality was recorded after 5 days.

[6] = tested on: Orchid Thrips (Dichromothrips Corbetti); test: B.7 Orchid thrips floral-immersion test; conditions: adult thrips, recorded 72 hours after treatment, read-out: mortality in comparison with untreated controls
Protocol: B.7 Orchid Thrips (Dichromothrips Corbetti) Dichromothrips corbettiadults used for bioassay were obtained from a colony maintained continuously under laboratory conditions. For testing purposes, the test compound is diluted in a 1:1 mixture of acetone:water (vol:vol), plus Kinetic HV at a rate of 0.01% v/v.
Thrips potency of each compound was evaluated by using a floral-immersion technique. All petals of individual, intact orchid flowers were dipped into treatment solution and allowed to dry in Petri dishes. Treated petals were placed into individual re-sealable plastic along with about 20 adult thrips. All test arenas were held under continuous light and a temperature of about 28° C. for duration of the assay. After 3 days, the numbers of live thrips were counted on each petal. The percent mortality was recorded 72 hours after treatment.

[7] = tested on: Green Peach Aphid (Myzus persicae); test: B.2 Green peach aphid systemic test, artificial diet under membrane in microtiter plates; conditions: 72 h, adult aphids, assessed after 3 days, read-out: mortality in comparison with untreated controls
Source text: B.2 Green Peach Aphid (Myzus persicae)
For evaluating control of green peach aphid (Myzus persicae) through systemic means the test unit consisted of 96-well-microtiter plates containing liquid artificial diet under an artificial membrane.
The compounds were formulated using a solution containing 75% v/v water and 25% v/v DMSO. Different concentrations of formulated compounds were pipetted into the aphid diet, using a custom built pipetter, at two replications.
After application, 5-8 adult aphids were placed on the artificial membrane inside the microtiter plate wells. The aphids were then allowed to suck on the treated aphid diet and incubated at about 23±1° C. and about 50±5% relative humidity for 3 days. Aphid mortality and fecundity was then visually assessed.

[8] = tested on: Tobacco Budworm (Heliothis virescens); test: B.4 Tobacco budworm test, insect diet with eggs in microtiter plates; conditions: 120 h, egg and larval mortality after 5 days, read-out: mortality in comparison with untreated controls
Protocol: B.4 Tobacco Budworm (Heliothis virescens)
For evaluating control of tobacco budworm (Heliothis virescens) the test unit consisted of 96-well-microtiter plates containing an insect diet and 15-25 H. virescens eggs.
The compounds were formulated using a solution containing 75% v/v water and 25% v/v DMSO. Different concentrations of formulated compounds were sprayed onto the insect diet at 10 μl, using a custom built micro atomizer, at two replications.
After application, microtiter plates were incubated at about 28±10C and about 80±5% relative humidity for 5 days. Egg and larval mortality was then visually assessed.

[9] = tested on: Diamond Back Moth (Plutella xylostella); test: B.1 Diamond back moth leaf-dip test on cabbage leaves; conditions: 3rd instar larvae, recorded 72 hours after treatment, read-out: mortality in comparison with untreated controls
Protocol: B.1 Diamond Back Moth (Plutella xylostella)
The active compound was dissolved at the desired concentration in a mixture of 1:1 (vol:vol) distilled water:aceteone. Surfactant (Kinetic HV) was added at a rate of 0.01% (vol/vol).The test solution was prepared at the day of use.
Leaves of cabbage were dipped in test solution and air-dried. Treated leaves were placed in petri dishes lined with moist filter paper and inoculated with ten 3rd instar larvae. Mortality was recorded 72 hours after treatment. Feeding damages were also recorded using a scale of 0-100%.

[10] = tested on: Red Spider Mite (Tetranychus kanzawai); test: B.9 Red spider mite test on sprayed cowpea beans; conditions: assessed 72 hours after treatment, read-out: mortality in comparison with untreated controls
Protocol: B.9 Red Spider Mite (Tetranychus kanzawai)
The active compound was dissolved at the desired concentration in a mixture of 1:1 (vol:vol) distilled water:acetone. Add surfactant (Kinetic HV) was added at a rate of 0.01% (vol/vol).The test solution was prepared at the day of use.
Potted cowpea beans of 4-5 days of age were cleaned with tap water and sprayed with 1-2 ml of the test solution using air driven hand atomizer. The treated plants were allowed to air dry and afterwards inoculated with 30 or more mites by clipping a cassava leaf section from rearing population. Treated plants were placed inside a holding room at about 25-27° C. and about 50-60% relative humidity. Percent mortality was assessed 72 hours after treatment.

[11] = tested on: Southern Armyworm (Spodoptera eridania); test: B.10 Southern armyworm test on sprayed lima bean plants; conditions: 96 h, larvae, assessed 4 days after treatment, read-out: mortality in comparison with untreated controls
Protocol: B.10 Southern Armyworm (Spodoptera eridania)
The active compounds were formulated in cyclohexanone as a 10,000 ppm solution supplied in tubes. The tubes were inserted into an automated electrostatic sprayer equipped with an atomizing nozzle and they served as stock solutions for which lower dilutions were made in 50% acetone:50% water (v/v). A nonionic surfactant (Kinetic®) was included in the solution at a volume of 0.01% (v/v).
Lima bean plants (variety Sieva) were grown 2 plants to a pot and selected for treatment at the 1st true leaf stage. Test solutions were sprayed onto the foliage by an automated electrostatic plant sprayer equipped with an atomizing spray nozzle. The plants were dried in the sprayer fume hood and then removed from the sprayer. Each pot was placed into perforated plastic bags with a zip closure. About 10 to 11 armyworm larvae were placed into the bag and the bags zipped closed. Test plants were maintained in a growth room at about 250C and about 20-40% relative humidity for 4 days, avoiding direct exposure to fluorescent light (24 hour photoperiod) to prevent trapping of heat inside the bags. Mortality and reduced feeding were assessed 4 days after treatment, compared to untreated control plants.

[12] = tested on: Brown Marmorated Stink Bug (Halyomorpha halys); test: B.13 Brown marmorated stink bug test on peanuts and soybean seeds in plastic cups; conditions: 120 h, adult stage, recorded after 5 days, read-out: mortality in comparison with untreated controls
Protocol: B.13 Brown Marmorated Stink Bug (Halyomorpha halys)
as §1
Row peanuts and soybean seeds were placed into microwavable plastic cups and inoculated with five adult stage H. halys. Using a hand atomizer, approximately 1 ml solution is sprayed into each cup, insects and food present. A water source was provided (cotton wick with water). Each treatment is replicated 4-fold. Assay arenas are kept at about 25° C. Percent mortality was recorded after 5 days.

[13] = tested on: Neotropical Brown Stink Bug (Euschistus heros); test: B.12 Neotropical brown stink bug test on soybean pods in plastic cups; conditions: 120 h, adult stage, recorded after 5 days, read-out: mortality in comparison with untreated controls
Protocol: B.12 Neotropical Brown Stink Bug (Euschistus heros)
as §1
Soybean pods were placed in microwavable plastic cups and inoculated with ten adult stage E. heros. Using a hand atomizer, approximately 1 ml solution is sprayed into each cup, insects and food present. A water source was provided (cotton wick with water). Each treatment was replicated 2-fold. Assay arenas were kept at about 25° C. Percent mortality was recorded after 5 days.

CCCC(=O)NCc1ccc(C2=NOC(c3cc(Cl)c(F)c(Cl)c3)(C(F)(F)F)C2)c2c1OCC2 (centres unmarked) [Compound I-16, N-[[4-[5-(3,5-dichloro-4-fluoro-phenyl)-5-(trifluoromethyl)-4H-isoxazol-3-yl]-2,3-dihydrobenzofuran-7-yl]methyl]butanamide]
≥ 75%: mortality at 2500 ppm [1] | mortality at 2500 ppm [2] | mortality at 300 ppm [3] | mortality at 2500 ppm [4] | mortality at 300 ppm [5] | mortality at 300 ppm [6] | mortality at 2500 ppm [7] | mortality at 2500 ppm [8] | mortality at 300 ppm [9] | mortality at 300 ppm [10]

O=C(NC1CS(=O)(=O)C1)c1ccc(C2=NOC(c3cc(Cl)c(F)c(Cl)c3)(C(F)(F)F)C2)c2c1SCC2 (centres unmarked) [Compound I-7, 4-[5-(3,5-dichloro-4-fluoro-phenyl)-5-(trifluoromethyl)-4H-isoxazol-3-yl]-N-(1,1-dioxothietan-3-yl)-2,3-dihydrobenzothiophene-7-carboxamide]
≥ 75%: mortality at 2500 ppm [1] | mortality at 10 ppm [11] | mortality at 2500 ppm [2] | mortality at 300 ppm [3] | mortality at 2500 ppm [4] | mortality at 300 ppm [5] | mortality at 100 ppm [12] | mortality at 300 ppm [6] | mortality at 2500 ppm [7] | mortality at 2500 ppm [8] | mortality at 300 ppm [9] | mortality at 300 ppm [10] | mortality at 100 ppm [13]
